Laboratory results: patent US20060263238A1, “Decontamination of biological microbes using quaternary ammonium surfactants at elevated temperatures” (priority 2005, published 2006)

Experiments:
[1] = test system: B. globigii spores; assay: Spore decontamination followed immediately by dilution and plating (CFU titer); format: cell-based, Bacillus globigii; conditions: for reduction of spores: 1% surfactant in water, >10^7 spores/ml, apparently independent of pH; for sporicidal (bacterial) activity: in the presence of moderate applied heat
Protocol: In the examples, below, three representative quaternary ammonium surfactants were tested for decontamination of Bacillus spores. The three exemplified quaternary ammonium surfactants are hexadecyltrimethylammonium chloride, dicocodimethylammonium chloride, and alkyldimethylbenzylammonium chloride. All three quaternary ammonium surfactants were dissolved in water and tested over a pH range. Testing occurred with and without applied heat. All experiments were performed with at least 3-4 replicates with many experiments reproduced numerous times.
(§1) Bacillus spores were suspended in the appropriate solvent at a concentration of 2 mg spores/ml (approximately 2×10^8 spores/ml). Starting volume of 1.125 ml of spores at 2 mg/ml. 3 or 4 spore aliquots of 50 μl per aliquot were removed. These aliquots were serially diluted in 1×PBS and plated on LB or TSA agar plates. This is a control step that gave the spore titer or colony-forming units (CFUs) at Time=0 minutes (T0). The appropriate decontamination solution (2× concentration) was aliquoted into each of 3 or 4 Eppendorf tubes with 200 ul per tube. Then 200 ul of spores were added and mixed to give a final concentration of 1× decontamination solution and 1 mg spores/ml. The spores in decontamination solution were then mixed and incubated for specific time periods and temperatures. A typical incubation was in a room temperature (25° C.) water bath for 30 (or 60) minutes. There was no agitation during the incubation period in order to mimic real world situations. Aliquots of spores were removed after 30 (or 60) minutes. The aliquots (3 or 4 replicates) were serially diluted in 1×PBS and plated on LB or TSA agar plates. This gave a CFU at Time=30 minutes (T30), which is the titer of live spores after the decontamination test. After removing the aliquots at the 30-minute time point, test (or control) samples were then immediately incubated in a 70° C. water bath for another 30 minutes. The samples were then serially diluted and plated on to LB or TSA agar plates to determine the titer after the 70° C. incubation. The entire dilution series from 0.1 through 0.000001 dilutions were plated. An optional wash assay was employed to confirm that the surfactant was killing spores rather than behaving as a bacterostatic agent. The wash assay included centrifuging and washing spores after decontamination. 100 ul of spores (after decontamination) were added to 200 ul of water and centrifuged at 10,000×g for one minute at room temperature. The supernatant was removed and saved. 10% of the supernatant volume was plated and titered as a wash control, to determine if live spores were being removed in the supernatant. Spore pellets were suspended in 1 ml of water and then pelleted at 10,000×g for one minute at room temperature. The supernatant was removed and saved. Spore pellets were washed again with 1 ml of water. Then spore pellets were suspended, serially diluted and plated. This removed the surfactant prior to plating and confirmed results that were bactericidal rather than bacterostatic.

[2] = test system: B. globigii spores; assay: Optional wash assay (surfactant removed by centrifuging and washing spores before plating); format: cell-based, Bacillus globigii; conditions: between pH5 and pH7 at 70° C.; for reduction of spore decontamination (wash assay): data not shown
Protocol: as §1
An optional wash assay was employed to verify the results (data not shown). […]

[3] = 30 minutes at 25° C. (room temperature)

Compound	reduction of spores [1, 3]	reduction of spores ([1]; 30 minutes at 70° C., complete)	sporicidal (bacterial) activity [1]	spores alive out of the original 10-100 million spores (wash assay) [2]	reduction of spore decontamination (wash assay) [2]
alkyldimethylbenzylammonium chloride	approximately 1 order-of-magnitude	greater than 7 orders-of-magnitude	strong sporicidal (bacterial) activity		
dicocodimethylammonium chloride	approximately 1 order-of-magnitude	greater than 7 orders-of-magnitude	strong sporicidal (bacterial) activity	less than 10 thousand	over 4 orders-of-magnitude
CCCCCCCCCCCCCCCC[N+](C)(C)C.[Cl-] [hexadecyltrimethylammonium chloride]	approximately 1 order-of-magnitude	greater than 7 orders-of-magnitude	strong sporicidal (bacterial) activity	less than 10 thousand	over 4 orders-of-magnitude
